Data: ChEMBL document CHEMBL4261560, “Structure-optimized dihydropyranoindole derivative GIBH-LRA002 potentially reactivated viral latency in primary CD4+ T lymphocytes of chronic HIV-1 patients” (Medchemcomm, 2017)
Active and inactive are the calls of the source. No cut-off for these calls is given here.

Legend:
[1] = tested on: Human immunodeficiency virus 1; test: Reactivation of latent HIV1 LTR-GFP infected in human Jurkat-Lat A10.6 cells assessed as increase in GFP-positive cells after 24 hrs by flow cytometry relative to control; format: functional
[2] = Cytotoxicity against human J-Lat cells at 100 uM; format: cell-based
[3] = tested on: Human immunodeficiency virus; test: Reactivation of HIV latent provirus in primary CD4+ T lymphocytes isolated from infected human PBMC assessed as increase in msRNA level at 10 to 100 uM after 24 hrs by RT-PCR analysis; format: functional, organism-based
[4] = tested on: Human immunodeficiency virus; test: Reactivation of HIV latent provirus in primary CD4+ T lymphocytes isolated from infected human PBMC assessed as increase in usRNA level at 10 to 100 uM after 24 hrs by RT-PCR analysis; format: functional, organism-based
PBMC = test: Cytotoxicity against PBMC (unknown origin) assessed as reduction in cell viability up to 500 uM by CCK8 assay; format: cell-based
[5] = tested on: Simian immunodeficiency virus; test: Reactivation of Simian immunodeficiency virus mac239 latent provirus in primary CD4+ T lymphocytes isolated from infected rhesus monkey PBMC assessed as increase in usRNA level after 24 hrs by RT-PCR analysis; format: functional, organism-based
T cell [6] = test: Induction of monkey PBMC CD4+ T cells activation assessed as increase in CCR5 expression up to 500 uM after 24 hrs by flow cytometry; format: cell-based, Macaca mulatta; details: rhesus monkey
T cell [7] = test: Induction of monkey PBMC CD3+ T cells activation assessed as increase in CCR5 expression up to 500 uM after 24 hrs by flow cytometry; format: cell-based, Macaca mulatta; details: rhesus monkey
[8] = Cytotoxicity against human J-Lat cells; format: cell-based
[9] = tested on: Human immunodeficiency virus 1; test: Reactivation of latent HIV1 LTR-GFP infected in human Jurkat-Lat A10.6 cells assessed as GFP-positive cells at 100 uM after 24 hrs by flow cytometry (reference value: 5.06%); format: functional
T cell [10] = test: Induction of monkey PBMC CD3+ T cells activation assessed as increase in CD69 expression up to 500 uM after 24 hrs by flow cytometry; format: cell-based, Macaca mulatta; details: rhesus monkey
T cell [11] = test: Induction of monkey PBMC CD4+ T cells activation assessed as increase in CD69 expression up to 500 uM after 24 hrs by flow cytometry; format: cell-based, Macaca mulatta; details: rhesus monkey
[12] = tested on: Human immunodeficiency virus 1; test: Reactivation of latent HIV1 LTR-GFP infected in human Jurkat-Lat A10.6 cells assessed as GFP-positive cells at 10 uM after 24 hrs by flow cytometry (reference value: 5.06%); format: functional
T cell [13] = test: Induction of monkey PBMC CD3+ T cells activation assessed as increase in CD25 expression up to 500 uM after 24 hrs by flow cytometry; format: cell-based, Macaca mulatta; details: rhesus monkey
T cell [14] = test: Induction of monkey PBMC CD4+ T cells activation assessed as increase in CD25 expression up to 500 uM after 24 hrs by flow cytometry; format: cell-based, Macaca mulatta; details: rhesus monkey
[15] = tested on: Simian immunodeficiency virus; test: Reactivation of Simian immunodeficiency virus mac239 latent provirus in primary CD4+ T lymphocytes isolated from infected rhesus monkey PBMC assessed as increase in msRNA level after 24 hrs by RT-PCR analysis; format: functional, organism-based
[16] = tested on: Human immunodeficiency virus; test: Reactivation of HIV latent provirus in primary CD4+ T lymphocytes isolated from infected human PBMC assessed as increase in msRNA level after 24 hrs by RT-PCR analysis; format: functional, organism-based
[17] = tested on: Human immunodeficiency virus; test: Reactivation of HIV latent provirus in primary CD4+ T lymphocytes isolated from infected human PBMC assessed as increase in usRNA level after 24 hrs by RT-PCR analysis; format: functional, organism-based
[18] = tested on: Human immunodeficiency virus 1; test: Reactivation of latent HIV1 LTR-GFP infected in human Jurkat-Lat A10.6 cells assessed as GFP-positive cells after 24 hrs by flow cytometry (reference value: 5.06%); format: functional

For `CCOC(=O)C1(C(F)(F)F)C(C#N)=C(N)Oc2[nH]c3ccccc3c21` (configuration not stated), the “fold change (FC)” value [1] was 2 and the Activity [2] was “Toxic”.

With `CCOC(=O)C1(C(F)(F)F)C(C#N)=C(N)Oc2c1c1ccccc1n2C` (configuration not stated) the Activity [3] was “Active”, the Activity [4] was “Active” and the Activity (PBMC) was “Non-Toxic”. For the same compound, the “fold change (FC)” value [1] was 4.4, the Activity [5] was “Dose-dependent effect” and the Activity (T cell [6]) was “Non-Toxic”. The Activity (T cell [7]) was “Non-Toxic”, the “fold change (FC)” value [8] was 1.3 and the Activity [9] was 23%. The Activity (T cell [10]) was “Non-Toxic”, the Activity (T cell [11]) was “Non-Toxic” and the Activity [12] was 9.16%. The Activity (T cell [13]) was “Non-Toxic”, the Activity (T cell [14]) was “Non-Toxic” and the Activity [15] was “Dose-dependent effect”.

In the case of `CCOC(=O)C1(C(F)(F)F)C(C#N)=C(N)Oc2c1c1ccccc1n2C(=O)OC(C)(C)C` (racemic), the “fold change (FC)” value [1] is reported as 2.6 and the “fold change (FC)” value [8] is reported as 1.8.

In the case of `COC(=O)C1(C(F)(F)F)C(C#N)=C(N)Oc2c1c1ccccc1n2C(=O)OC(C)(C)C` (configuration not stated), the “fold change (FC)” value [1] is reported as 2.1 and the “fold change (FC)” value [8] is reported as 2.6.

With `CC(C)(C)OC(=O)n1c2c(c3ccccc31)C(C(F)(F)F)C(C#N)=C(N)O2` (configuration not stated) the “fold change (FC)” value [1] was 0.25 and the “fold change (FC)” value [8] was 3.

In the case of `CCCC(CCC)C(=O)O` [VALPROIC ACID], the Activity [16] is reported as “inactive”, the Activity [17] is reported as “inactive” and the Activity [5] is reported as “inactive”. For the same compound, the Activity [18] was 25.7% and the Activity [15] was “inactive”.

With `CCOC(=O)[C@@]1(C(F)(F)F)C(C#N)=C(N)Oc2c1c1ccccc1n2C(=O)OC(C)(C)C` the “fold change (FC)” value [1] was 1.5 and the Activity [2] was “Toxic”.

For `CCOC(=O)C1(C(F)(F)F)C(C#N)=C(N)Oc2c1c1ccccc1n2Cc1ccccc1` (configuration not stated), the “fold change (FC)” value [1] was 1.9 and the Activity [2] was “Toxic”.
